{"source": "patent US20250346845A1", "about": "“CELL-[…]” (TOPPAN HOLDINGS INC., priority 2023, published 2025)", "format_in_all_cases": "cell-based, human", "settings_in_all_cases": "drug added day 4, read day 7, general-purpose medium", "key": {"HT29 cells [1]": {"test_system": "HT29 cells", "assay": "Anti-cancer drug evaluation, HT29 cells, 2D culture method, ATP assay", "procedure": "(§1) On the fourth day after the start of the culture, an anti-cancer drug SN-38 (Selleck, S4908) was added to the medium in each well at a concentration of 0, 0.01, 0.1, 1 or 10 μM. On the seventh day after the start of culture, the number of HT29 cells was counted by ATP assay. The cell viability was calculated using the above formula (2) to evaluate the drug efficacy."}, "HT29 cells [2]": {"test_system": "HT29 cells", "assay": "Anti-cancer drug evaluation, HT29 cells cultured using stromal stamp, ATP assay", "procedure": "HT29 (ATCC, HTB-38), a human colon adenocarcinoma cell line, was seeded in the third vessel (24-well plate) in Table 3 above at 1×10^3 cells/well. The stromal stamp prepared in Example 1 was then placed on each well.\nas §1, with “culture, the stromal stamps were removed and the number of” for “culture, the number of”, “using the following formula (2)” for “using the above formula (2)”"}, "HT29 cells [3]": {"test_system": "HT29 cells", "assay": "Anti-cancer drug evaluation, HT29 cells on stromal cell layer, 3D culture method, EpCAM immunofluorescence", "procedure": "2.0×10^6 NHDFs and 3.0×10^4 HUVECs were suspended in an equal volume mixture of 150 μL of 0.2 mg/mL heparin/50 mM Tris-HCl buffer (pH 7.4) and 150 μL of 0.2 mg/mL collagen/5 mM acetate solution (pH 3.7). The resulting mixture was centrifuged at 1,000×g for 1 minute at room temperature to obtain a viscous mass. The obtained viscous mass was suspended in DMEM containing 10% FBS. The entire suspension was seeded in a 24-well Transwell culture insert and centrifuged at 400×g (gravitational acceleration) at room temperature for 1 minute. As a result, a cell layer (i.e., a cell layer containing cells forming the stroma) was formed on the membrane of the Transwell culture insert.\nSubsequently, HT29 cells were seeded on the cell layer at 1×10^3 cells/well and cultured in the general-purpose medium shown in Table 4 above. On the fourth day after the start of the culture, an anti-cancer drug SN-38 (Selleck, S4908) was added to the medium in each well at a concentration of 0, 0.01, 0.1, 1 or 10 μM.\nOn the seventh day after the start of culture, the cells were fixed and stained for EpCAM with immunofluorescence staining, and the stained cells were counted as HT29 cells. More specifically, the area of fluorescence emission from cancer cells was calculated using a microscope system (Operetta CLS, PerkinElmer) in the fluorescence mode (fluorescence: Alexa 647). The cell viability was calculated using the following formula (3) to evaluate the drug efficacy."}}}
{"smiles": "CCc1c2c(nc3ccc(O)cc13)-c1cc3c(c(=O)n1C2)COC(=O)[C@]3(O)CC", "note": "[SN-38]", "values": [{"measurement": "Cell viability (%)", "setting": "HT29 cells [1]; 0.01 μM", "result": "78.3 ± 9.45", "unit": "%"}, {"measurement": "Cell viability (%)", "setting": "HT29 cells [1]; 0.1 μM", "result": "54.3 ± 5.45", "unit": "%"}, {"measurement": "Cell viability (%)", "setting": "HT29 cells [1]; 1 μM", "result": "35 ± 3.24", "unit": "%"}, {"measurement": "Cell viability (%)", "setting": "HT29 cells [1]; 10 μM", "result": "21.3 ± 4.23", "unit": "%"}, {"measurement": "Cell viability (%)", "setting": "HT29 cells [2]; 0.01 μM", "result": "103.3 ± 14.5", "unit": "%"}, {"measurement": "Cell viability (%)", "setting": "HT29 cells [2]; 0.1 μM", "result": "72.87 ± 14.57", "unit": "%"}, {"measurement": "Cell viability (%)", "setting": "HT29 cells [2]; 1 μM", "result": "49.3 ± 13.05", "unit": "%"}, {"measurement": "Cell viability (%)", "setting": "HT29 cells [2]; 10 μM", "result": "36.5 ± 10.24", "unit": "%"}, {"measurement": "Cell viability (%)", "setting": "HT29 cells [3]; 0.01 μM", "result": "97.8 ± 20.04", "unit": "%"}, {"measurement": "Cell viability (%)", "setting": "HT29 cells [3]; 0.1 μM", "result": "72.87 ± 14.57", "unit": "%"}, {"measurement": "Cell viability (%)", "setting": "HT29 cells [3]; 1 μM", "result": "54.21 ± 13.05", "unit": "%"}, {"measurement": "Cell viability (%)", "setting": "HT29 cells [3]; 10 μM", "result": "34.2 ± 9.47", "unit": "%"}]}
